Assay results reported in patent publication US11613552B2, “Pharmaceutical agents, compositions, and methods relating thereto” (Alltech, Inc., priority 2017, dated 2023).

How the values were obtained:
[1] = tested on: Lepr^db/db mice; assay: Glucose tolerance test in Lepr^db/db mice; type: in vivo, mouse
Experimental: Male Lepr^db/db mice at 38 days of age were intraperitoneally (ip) injected daily with physiological saline ([…]) containing 0.2% DMSO, Compound #C, Compound #50, Compound #68, and/or Compound #43 (25 μg selenium or sulfur equivalents of each compound per kilogram body weight, diluted in sterile physiological saline) for periods ranging from 43-90 days. Body weights of the above treated mice were recorded daily using a balance and any visible abnormal animal gross morphology and walking behavior were monitored daily. After the treatments, animals were fasted overnight and then subjected to blood glucose or HbA1c assays, glucose tolerance tests or tissue collections.
For comparative studies of any potential anti-diabetic effects of Compounds #43, #69 and #70, male Lepr^db/db mice at 41 days of age were intraperitoneally (ip) injected daily with physiological saline ([…]) containing 0.2% DMSO, Compound #43, Compound #69, or Compound #70 (25 μg selenium of each compound per kilogram body weight, diluted in sterile physiological saline). After the treatments for 43 days, animals were fasted overnight and then subjected to blood glucose and glucose tolerance tests. After daily treatments of these compounds for 90 days, sera from these animals were collected and then subjected to blood HbA1c assays.
Glucose tolerance tests were performed as described previously (Li et al, Int J Biol Sci 2008; 4:29-36). Briefly, overnight-fasted Lepr^db/db mice after saline or compound treatments were injected intraperitoneally with 2 grams/kg body weight of 20% D-glucose. Blood glucose levels at time 0 (immediately before the injection of glucose), 0.25, 0.5, 1 and 2 hours after injection of glucose were determined using a glucometer with a maximum glucose measurement capacity of 600 mg/dL. Because of this, blood glucose levels over 600 mg/dL were counted as 600 mg/dL in the data analysis.

[2] = tested on: PDK1/AKT/FOXO1; assay: Western blot of PDK1/AKT/FOXO1 in serum-starved HepG2 cells; type: cell-based, human
Experimental: HepG2 cells were seeded on 6-well plates (7×10^5 cells/well) and cultured in 10% FBS EMEM media for 30 hr. Then these cells were washed twice with PBS to remove residual sera, and serum-starved in plain EMEM media overnight. […]
After the above described treatments, cultured HepG2 and AML-12 cells were rinsed twice with ice-cold PBS and lysed in ice-cold RIPA buffer containing complete proteinase and phosphatase inhibitors (Thermo-Fisher Scientific, Waltham, Mass.) on ice for 30 min. Cell lysates were collected using a cell scraper and transfer pipette, and then centrifuged at 12000×g for 30 min at 4° C. to remove the DNA pellet and obtain the protein extract. Protein levels in the supernatant of these cell lysates were determined using the Pierce Micro-BCA protein assay kit (Thermo Scientific-Piece Biotechnology, Rockford, Ill.) according to the manufacturer's protocol.
One hundred micrograms of liver tissue proteins or five micrograms of total proteins from control- and compound(s)-treated HepG2 or AML-12 cells were subjected to SDS-PAGE gel separation and then transferred to PVDF membranes, as described previously (Reddy et al. 2008 Science). Membranes were blocked in a phosphate-buffered saline (PBS) containing 5% (w/v) of bovine serum albumin (Sigma, St. Louis, Mo.) and incubated with specific primary antibodies followed by the incubation with HRP-conjugated anti-mouse or anti-rabbit secondary antibodies (1:5000 dilution, Cell Signaling Inc.). All primary antibodies except Gapdh (Li-COR, Lincoln, Nebr.) were purchased from Cell Signaling Inc. Positive signals on the membrane blots were detected using the Amersham's enhanced chemiluminescence Western Blotting Prime Detection reagents (GE Healthcare Lifescience, Pittsburgh, Pa.). Images of these luminescence signals on the membrane blots were captured using the LI-COR Odyssey Fc Image system (Lincoln, Nebr.). The same membrane blot was stripped and re-blotted with another antibody as described in the GE WB ECL-prime-detection protocol (GE healthcare Lifescience, Pittsburgh, Pa.). Protein band densities in the Western blots were determined using the NIH ImageJ software and then normalized by Gapdh or Actb/ACTB level in each sample. Data are presented as mean±SEM of three samples per each group.

For `C[Se]C[C@H]1O[C@@H](n2cnc3c(N)ncnc32)C(OC(C)=O)C1OC(C)=O` (stereo partly drawn) [Compound #43, Adenosine, 5′-Se-methyl-5′-selino-, 2′,3′-diacetate], the “glucose tolerance (overall)” value ([1]; 25 μg selenium or sulfur/kg ip daily 2 months (FIG. 8B)) was “dramatically improves glucose tolerance”, the “glucose tolerance (overall)” value ([1]; 25 μg selenium/kg ip daily 43 days from day 38, glucose 2 g/kg (FIG. 8A)) was “can almost completely restore insulin action” and the “glucose tolerance (overall)” value ([1]; 25 μg selenium/kg ip daily 43 days from day 41 (FIG. 8C)) was “can dramatically improve glucose tolerance”. The “blood glucose level at 2 hr after glucose injection” value (shortened to “blood glucose level at 2 hr”) ([1]; FIG. 8A, 43 days treatment) was “almost completely back to pre-injection glucose levels”, the “blood glucose levels at 0.25, 0.5 and 1 hr after glucose injection” value ([1]; FIG. 8A, 43 days treatment) was “visibly lower than saline-, Compound #C- or #50-treated mice” and the “blood glucose level at 2 hr” value ([1]; FIG. 8B, 2 months treatment) was “significantly lower than Compound #68-treated littermates”. For the same molecule, the “blood glucose level at 1 hour after glucose injection” value ([1]; FIG. 8C, 43 days treatment) was “significantly lower than saline-, Compound #69- or Compound #70-treated littermates”, the “blood glucose level at 2 hr” value ([1]; FIG. 8C, 43 days treatment) was “much lower than Saline-, Compound #69- or Compound #70-treated mice” and the “time of peak increase of pPDK1” value ([2]; 600 ppb) was 60-90 minutes. The “phosphorylated AKT at T308” value ([2]; 600 ppb, 30, 60, 90 minutes and 24 hr (FIG. 13C)) was “significant and transient increase of phosphorylated AKT at T308”, the “phosphorylated FOXO1 at T24” value ([2]; 600 ppb, 90 minutes and longer (FIG. 13E)) was “significantly increased” and the “total AKT protein levels” value ([2]; 600 ppb, all tested time points) was “not significantly altered”. The “total Foxo1 protein levels” value ([2]; 600 ppb, less than 24 hours) was “no significant change in total FOXO1 protein levels”, the “total Foxo1 protein levels” value ([2]; 600 ppb, prolonged treatment 30 hr or 48 hr) was “slight but statistically significant decrease of total FOXO1 proteins” and the pPDK1 protein level ([2]; 600 ppb, serum-free, 30, 60, 90 minutes (FIG. 13B)) was “significant and transient increase of pPDK1”.
